Results on 38 compounds are retold here after patent publication US8987473B2, “Ring-fused compound” (Sato Pharmaceutical Co., Ltd., priority 2011, dated 2015).

The target in the assay is human URAT1 (Homo sapiens (Human), UniProt Q96S37). The assay is described as follows: Test for uric acid transport inhibition using human URAT1 expression cell. The note with it: human URAT1 stable expression CHO cell; 14C-labeled uric acid 38 μM final concentration; incorporation at room temperature for 5 minutes; 100% window defined with benzbromarone 100 μM; read-out: URAT1 Inhibitory Activity (IC50). It counts as cell-based. As for the experimental part:
In this Example, it was evaluated whether the Example compound has the URAT1 inhibitory activity.
Human URAT1 full-length cDNA was introduced to an expression vector pcDNA5/FRT/V5-His TOPO (registered trademark) (Invitrogen Corporation). The obtained expression plasmid was introduced to Chinese hamster ovary cell (hereinafter referred to as the CHO cell) by the liposome method using Lipofectamine LTX (Invitrogen), and cultured in a selection medium including hygromycin, whereby to prepare human URAT1 stable expression cell.
The human URAT1 expression CHO cell was cultured using D-MEM/F-12 (1:1) mixed medium including 10% bovine fetal serum and hygromycin at 37° C. in the presence of 5% CO2. The cells were seeded onto a 96 well plate (Corning Incorporated) in 0.8×10^5 cells/well, and after 24 hours, the test for uric acid transport inhibition below was performed.
The medium was removed by aspiration, and then the cells were washed once with an assay buffer including 125 mM of sodium gluconate, 4.8 mM of potassium gluconate, 1.2 mM of potassium dihydrogen phosphate, 1.2 mM of magnesium sulfate, 1.3 mM of calcium gluconate and 5.6 mM of glucose. 50 μL assay buffer including the test compound in various concentrations was added, and further 50 μL assay buffer including a radioactive ligand (uric acid labeled with ^14C; 38 μM final concentration) was added, and incorporation reaction was performed at room temperature for 5 minutes. Immediately after completion of the reaction, the reaction mixture was washed twice with 100 μL ice-cold assay buffer, and 100 μL of 0.1 N sodium hydroxide was added. The reaction mixture was stirred to lyse the cells, and 4 mL Hionic-Fluor (Packard BioScience CO) was added, and then the radioactivity was measured with a liquid scintillation counter (Beckman Coulter, Inc. and Packard BioScience CO).
The radioactivity when each concentration of the test compound was added (uric acid incorporation activity, %) was calculated in which the difference of the radioactivity when the test compound was not added (DMSO added), and the radioactivity when a positive control compound, benzbromarone (known URAT1 inhibitor) was added in 100 μM, was taken as 100%, and the concentration of the test compound when the uric acid incorporation activity was inhibited to 50% (IC50) was obtained.

Each structure is given as a SMILES string.

human URAT1, sequence (Q96S37 whole entry): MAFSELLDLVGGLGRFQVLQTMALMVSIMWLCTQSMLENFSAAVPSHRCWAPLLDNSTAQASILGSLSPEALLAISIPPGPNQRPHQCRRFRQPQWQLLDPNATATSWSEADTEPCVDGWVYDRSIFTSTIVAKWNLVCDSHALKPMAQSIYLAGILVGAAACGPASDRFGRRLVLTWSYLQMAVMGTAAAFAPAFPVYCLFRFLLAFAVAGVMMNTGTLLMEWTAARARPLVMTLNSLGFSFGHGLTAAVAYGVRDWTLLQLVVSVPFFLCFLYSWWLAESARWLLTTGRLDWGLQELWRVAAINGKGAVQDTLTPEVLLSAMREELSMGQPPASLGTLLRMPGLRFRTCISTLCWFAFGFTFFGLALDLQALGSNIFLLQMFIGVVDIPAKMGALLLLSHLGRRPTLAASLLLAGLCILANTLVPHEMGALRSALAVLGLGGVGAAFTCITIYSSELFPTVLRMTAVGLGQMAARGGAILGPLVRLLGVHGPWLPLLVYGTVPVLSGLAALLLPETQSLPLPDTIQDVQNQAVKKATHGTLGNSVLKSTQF

For orientation: IC50 means the concentration that inhibits the measured activity by half. Consider `Cc1cccc(C)c1Cn1c(=O)n(C(C)C)c2ccc(C(=O)O)cc21` [Example 186, 3-(2,6-dimethylbenzyl)-1-isopropyl-2-oxo-2,3-dihydro-1H-benzimidazole-5-carboxylic acid], for which the IC50 turned out to be 165 nM. For `Cc1cccc(C)c1Cn1nc(C(C)C)c2ccc(CC(=O)O)cc21` [Example 147, 2-[1-(2,6-dimethylbenzyl)-3-isopropyl-1H-indazole-6-yl]acetic acid], the IC50 is 76 nM. Regarding `Cc1nn(Cc2c(Cl)cccc2C2CC2)c2cc(CCC(=O)O)ccc12` [Example 185, 3-[1-(2-chloro-6-cyclopropylbenzyl)-3-methyl-1H-indazole-6-yl]propionic acid], the IC50 amounted to 17 nM. With `Cc1nn(Cc2c(Cl)cccc2Cl)c2cc(CCC(=O)O)ccc12` [Example 122, 3-[1-(2,6-dichlorobenzyl)-3-methyl-1H-indazole-6-yl]propionic acid], the IC50 stood at 10 nM. Regarding `Cc1ccc(C)c(Cn2cc(C)c3ccc(CC(=O)O)cc32)c1` [Example 85, 2-[1-(2,5-dimethylbenzyl)-3-methyl-1H-indole-6-yl]acetic acid], the IC50 was 63 nM. For the compound `Cc1nn(Cc2c(Cl)cccc2Cl)c2cc(-c3nnn[nH]3)cnc12` [Example 156, 1-(2,6-dichlorobenzyl)-3-methyl-6-(1H-tetrazole-5-yl)-1H-pyrazolo[4,3-b]pyridine], the IC50 was determined as 438 nM. With `Cc1nn(Cc2c(Cl)cccc2Cl)c2cc(OCC(=O)O)ccc12` [Example 138, 2-[1-(2,6-dichlorobenzyl)-3-methyl-1H-indazole-6-yloxy]acetic acid], the IC50 amounted to 916 nM. The same measure for `Cc1cccc(C)c1Cn1cc(C)c2ccc(C(=O)O)cc21` [Example 61, 1-(2,6-dimethylbenzyl)-3-methyl-1H-indole-6-carboxylic acid]: 46 nM. For the compound `Cc1nn(Cc2cccc(Cl)c2Cl)c2cc(CC(=O)O)ccc12` [Example 99, 2-[1-(2,3-dichlorobenzyl)-3-methyl-1H-indazole-6-yl]acetic acid], the IC50 is 41 nM. Turning to `CCc1nn(Cc2c(Cl)cccc2Cl)c2cc(/C=C/C(=O)O)ccc12` [Example 146, (E)-3-[1-(2,6-dichlorobenzyl)-3-ethyl-1H-indazole-6-yl]acrylic acid], the IC50 is 53 nM. For the compound `N#Cc1nn(Cc2c(Cl)cccc2Cl)c2cc(C(=O)O)ccc12` [Example 150, 3-cyano-1-(2,6-dichlorobenzyl)-1H-indazole-6-carboxylic acid], the IC50 was 295 nM. As for `Cc1cccc(C)c1CN1CC(C)c2ccc(CC(=O)O)cc21` (centres unmarked) [Example 78, (3-RS)-2-[1-(2,6-dimethylbenzyl)-2,3-dihydro-3-methyl-1H-indole-6-yl]acetic acid], the IC50 was 24 nM. For the compound `Cc1nn(Cc2cccc3cccnc23)c2cc(CC(=O)O)ccc12` [Example 115, 2-[3-methyl-1-(quinoline-8-ylmethyl)-1H-indazole-6-yl]acetic acid], the IC50 came to 394 nM. As for `Cc1cn(Cc2cc3c(cc2Cl)OCO3)c2cc(CC(=O)O)ccc12` [Example 88, 2-{1-[(6-chlorobenzo[d][1,3]dioxol-5-yl)methyl]-3-methyl-1H-indole-6-yl}acetic acid], the IC50 came out at 98 nM. To `Clc1cccc(Cl)c1Cn1nc(Cl)c2ncc(-c3nnn[nH]3)cc21` [Example 175, 3-chloro-1-(2,6-dichlorobenzyl)-6-(1H-tetrazole-5-yl)-1H-pyrazolo[4,3-b]pyridine] belongs 163 nM; to `Cc1nn(Cc2c(Cl)cccc2Cl)c2cc(C(F)(F)C(=O)O)ccc12` [Example 183, [1-(2,6-dichlorobenzyl)-3-methyl-1H-indazole-6-yl]difluoroacetic acid], 15 nM.

`CCc1nn(Cc2c(Cl)cccc2Cl)c2cc(CC(=O)O)ccc12` [Example 140, 2-[1-(2,6-dichlorobenzyl)-3-ethyl-1H-indazole-6-yl]acetic acid]: the IC50 came to 24 nM.

For `Cc1cn(Cc2c(Cl)cccc2Cl)c2cc(CC(=O)O)ccc12` [Example 82, 2-[1-(2,6-dichlorobenzyl)-3-methyl-1H-indole-6-yl]acetic acid], the IC50 amounted to 15 nM. As to `Cc1cccc(C)c1Cn1nc(C)c2ccc(CC(=O)O)cc21` [Example 66, 2-[1-(2,6-dimethylbenzyl)-3-methyl-1H-indazole-6-yl]acetic acid], the IC50 came out at 67 nM. For the compound `Cc1nn(Cc2cccc3ccccc23)c2cc(CC(=O)O)ccc12` [Example 107, 2-[3-methyl-1-(naphthalene-1-ylmethyl)-1H-indazole-6-yl]acetic acid], the IC50 was 77 nM. Consider `Cc1nn(Cc2c(Cl)cccc2Cl)c2cc(C(=O)CCC(=O)O)ccc12` [Example 130, 4-[1-(2,6-dichlorobenzyl)-3-methyl-1H-indazole-6-yl]-4-oxobutyric acid], for which the 50% inhibitory concentration (IC50) amounted to 68 nM.

On to `CCc1nn(Cc2c(Cl)cccc2Cl)c2cc(CCC(=O)O)ccc12` [Example 145, 3-[1-(2,6-dichlorobenzyl)-3-ethyl-1H-indazole-6-yl]propionic acid], for which the IC50 came out at 26 nM. In the case of `Cc1nn(Cc2c(Cl)cccc2C2CC2)c2cc(-c3nnn[nH]3)cnc12` [Example 164, 1-(2-chloro-6-cyclopropylbenzyl)-3-methyl-6-(1H-tetrazole-5-yl)-1H-pyrazolo[4,3-b]pyridine], the IC50 came to 55 nM. As for `O=C(O)c1cnc2c(Cl)nn(Cc3c(Cl)cccc3Cl)c2c1` [Example 172, 3-chloro-1-(2,6-dichlorobenzyl)-1H-pyrazolo[4,3-b]pyridine-6-carboxylic acid], the IC50 stood at 162 nM.

With `Cc1nn(Cc2c(Cl)cccc2Cl)c2cc(CC(=O)O)ccc12` [Example 97, 2-[1-(2,6-dichlorobenzyl)-3-methyl-1H-indazole-6-yl]acetic acid], the IC50 is 18 nM. To `CCc1nn(Cc2c(C)cccc2C)c2cc(CC(=O)O)ccc12` [Example 142, 2-[1-(2,6-dimethylbenzyl)-3-ethyl-1H-indazole-6-yl]acetic acid] belongs 50 nM; to `Cc1cc(C)c(Cn2nc(C)c3ccc(CC(=O)O)cc32)c(C)c1` [Example 108, 2-[3-methyl-1-(2,4,6-trimethylbenzyl)-1H-indazole-6-yl]acetic acid], 94 nM. In the case of `Cc1nn(Cc2c(Cl)cccc2C#N)c2cc(CCC(=O)O)ccc12` [Example 125, 3-[1-(2-chloro-6-cyanobenzyl)-3-methyl-1H-indazole-6-yl]propionic acid], the 50% inhibitory concentration (IC50) amounted to 72 nM.

On to `Cc1cn(Cc2ccccc2Cl)c2cc(CC(=O)O)ccc12` [Example 87, 2-[1-(2-chlorobenzyl)-3-methyl-1H-indole-6-yl]acetic acid], for which the concentration for half-maximal inhibition (IC50) was 88 nM. For `Cc1cccc(Cl)c1Cn1nc(Cl)c2ncc(C(=O)O)cc21` [Example 174, 3-chloro-1-(2-chloro-6-methylbenzyl)-1H-pyrazolo[4,3-b]pyridine-6-carboxylic acid], the IC50 worked out at 148 nM. In the case of `Cc1ccc(C)c(Cn2nc(C)c3ncc(-c4nnn[nH]4)cc32)c1` [Example 163, 1-(2,5-dimethylbenzyl)-3-methyl-6-(1H-tetrazole-5-yl)-1H-pyrazolo[4,3-b]pyridine], the IC50 was found to be 113 nM. Take `CCc1cn(Cc2c(C)cccc2C)c2cc(C(=O)O)ccc12` [Example 91, 1-(2,6-dimethylbenzyl)-3-ethyl-1H-indole-6-carboxylic acid]: the IC50 stood at 43 nM. For `Cc1cn(Cc2c(Cl)cccc2Cl)c2cc(CCC(=O)O)ccc12` [Example 89, 3-[1-(2,6-dichlorobenzyl)-3-methyl-1H-indole-6-yl]propionic acid], the IC50 was 23 nM. In the case of `CCc1nn(Cc2c(C)cccc2Cl)c2cc(C(=O)O)cnc12` [Example 170, 1-(2-chloro-6-methylbenzyl)-3-ethyl-1H-pyrazolo[4,3-b]pyridine-6-carboxylic acid], the IC50 is 80 nM. As for `Cc1cn(Cc2c(F)cccc2Cl)c2cc(CC(=O)O)ccc12` [Example 86, 2-[1-(2-chloro-6-fluorobenzyl)-3-methyl-1H-indole-6-yl]acetic acid], the half-maximal inhibitory concentration (IC50) was found to be 28 nM.

Regarding `Cc1nn(Cc2cccc(Cl)c2Cl)c2cc(-c3nnn[nH]3)cnc12` [Example 158, 1-(2,3-dichlorobenzyl)-3-methyl-6-(1H-tetrazole-5-yl)-1H-pyrazolo[4,3-b]pyridine], the IC50 stood at 292 nM.

Take `CCc1nn(Cc2c(Cl)cccc2Cl)c2cc(-c3nnn[nH]3)cnc12` [Example 171, 1-(2,6-dichlorobenzyl)-3-ethyl-6-(1H-tetrazole-5-yl)-1H-pyrazolo[4,3-b]pyridine]: the 50% inhibitory concentration (IC50) was determined as 52 nM. Regarding `Cc1nn(Cc2c(Cl)cccc2Cl)c2cc(C(=O)O)ccc12` [Example 119, 1-(2,6-dichlorobenzyl)-3-methyl-1H-indazole-6-carboxylic acid], the IC50 amounted to 65 nM.
